How the values were obtained:
HepG2 cells = experiment: intracellular ATP, ADP and AMP levels by LC-MS in HepG2; format: cell-based, human; conditions: HepG2, 10 μM, 2 hours
Protocol: Samples were analyzed using an Agilent 1100 series LC/MSD system equipped with G1322A degasser, G1312A binary pump, G1315A photo-diode-array detector, 59987A electrospray interface and 5989B mass spectrometer. ES-MS analysis was performed using an Agilent 5989 electrospray (ES) mass spectrometer (MS) with an Agilent Atmospheric Pressure Ionization (API) interface fitted with a hexapole ion guide. Chromatogram was automatically integrated with the aid of Chemstation software, and concentrations were determined using a standard calibration curve.
Acid extraction was used for analysis of an AOPN concentration in the cells and liver tissues. 400 μl of 6% HClO4 was added to the cells cultured in a 100 mm dish, whereas a two-fold volume of 6% HClO4 was added to the liver tissues which were then immediately homogenized. Each mixture was centrifuged at 14,000 g and 4° C. for 10 min, and the resulting supernatants were neutralized by addition of 1 M borate buffer (pH 11) containing 4 mM EDTA in an amount of 75%. Samples were aliquoted and stored at a temperature of −80° C.
A mobile phase was 100 mM ammonium acetate:MeOH (98:2, v/v), and preparations were filtered through a 0.22-μm Millipore filter. A flow rate was set to 0.8 mL/min and detection was made at 254 nm. Separation was carried out using a ZORBAX Bonus-RP C18 column (3.5 μm, 4.6×150 mm I.D., Waters, USA). […]

HEK293 cells = experiment: calcium influx in NQO1-deficient HEK293 cells; format: cell-based, human
Protocol: Cells were grown on a coverslip in a culture medium for 24 hours, maintained in an RPMI 1640 serum-free medium for 1 hour, and pretreated with a calcium indicator Fluo-4 (5 μM) for 30 min. After pretreatment, the coverslip was mounted on a slide glass. […] Using an LSM Image Browser program (Carl Zeiss), 300 images taken for 10 min every 2 seconds were sorted and ordered in a time sequence and plotted on a graph.

cardiomyocytes = experiment: intracellular NAD(P)H fluorescence in cardiomyocytes; format: cell-based
Protocol: HepG2 (human hepatoma cell line), HEK293 (Human embryonic kidney cell line), and C2C12/L6 myoblasts were purchased from American Type Culture Collection (ATCC, Manassas, Va., USA). LKB-/- MEFs were purchased from R.A. DePinho. Rat ventricular myocytes were enzymatically isolated from the heart of adult […] by a known method. Phosphorylation of AMPK ([…]) and ACC ([…]) was measured by Western blot analysis using Cell Signaling Technologies and pan- and phospho-specific antibodies (Upstate Biotechnology, Inc., Lake Placid, N.Y.). In order to monitor monochromatic fluorescence (350 nm), light was illuminated using a 75 W xenon arc lamp directed via a 10 Hz chopper wheel; specific fluorescence intensity was measured at a wavelength of 405±15 nm and 460±10 nm. Even though autofluorescence at 460 nm may occur from unknown intracellular components or cytosolic NAD(P)H, most of the light detected by the method of the present invention was generated from mitochondrial NAD(P)H. Specifically, the NQO1 activity and changes in the intracellular NAD(P)H fluorescence concentration in the presence/absence of NQO1 activity were measured in HepG2, HEK293 and pSG5 HA-NQO1 or pSG5 HA NQO1 […]-inserted HEK293 cells.

MN9X cells = experiment: intracellular ATP concentration in non-dopaminergic neuronal cells; format: cell-based; conditions: 5 μM
Protocol: Dopaminergic (MN9D) and non-dopaminergic (MN9X) neuronal cells were treated with 5 μM pyran-1,2-naphthoquinone and the ATP concentration was periodically measured.

[1] = mean body temperature after cold exposure; format: in vivo, mouse; conditions: ambient temperature of 4 for 12 hours

CC1(C)CCC2=C(O1)c1ccccc1C(=O)C2=O [βL, 2,2-Dimethyl-3,4-dihydro-2H-benzo[h]chromene-5,6-dione]
time at which ATP amount was minimum and AMP amount maximum (HepG2 cells): 30 min | calcium peak (HEK293 cells): not appeared | decrease of NAD(P)H (cardiomyocytes): about 40% | intracellular ATP concentration (MN9X cells): decreased | mean body temperature after cold exposure [1]: more resistant to the cold

— patent US20140106387A1, “METHOD FOR CONTROLLING NAD(P)/NAD(P)H RATIO BY OXIDOREDUCTASE” (MD BIOALPHA CO., LTD., priority 2006, published 2014)
